Converted amounts (≈) assume the structure as drawn. Read-outs that look alike come from different tables or passages of the source.
Experiments:
in vivo = conditions: mouse
[1] = test system: Sclerotinia sclerotiorum IFO 9395; test: Antimicrobial spectrum, agar dilution method (in vitro); format: cell-based; conditions: IFO9395, medium A, 28 °C, 40 hr, read-out: Minimal inhibitory concentration
powdery mildew of barley = test: Controlling effect against powdery mildew of barley (method of Iwasa et al.); format: in vivo; conditions: in words
From the text: The controlling effect against powdery mildew of barley was investigated according to the method of Iwasa, et. al. (The Journal of Antibiotics, vol. 31, No. 6, pp. 512, 1978).

Solubilities = format: physicochemical; conditions: free base
[2] = test system: Rhodotorula rubra IFO 0870; test: Antimicrobial spectrum, agar dilution method (in vitro); format: cell-based; conditions: IFO0870, medium A, 28 °C, 40 hr, read-out: Minimal inhibitory concentration
Totranychus urticae = test: Miticidal effect on kidney bean seedlings; format: in vivo; conditions: 500 ppm, 28 °C, 20 ml per pot
Method: The test on the miticidal effect was carried out. The seedlings (5 days after germination) of kidney bean grown in pots (9 cm in diameter) were inoculated on their main leaves with about 50 female adults of Totranychus urticae, and the test chemical solution was sprayed in 20 ml quantities per pot by means of a spray gun. After spraying, the pots were placed in a phytotron (28° C.), and a number of surving mites on leaves was investigated at the 5th and 7th day to determine a decrease rate against a number of mites immediately before spraying [=(number of mites tested-number of surving mites)/(number of mites tested)×100].

[3] = test system: Penicillium chrysogenum IFO 4626; test: Antimicrobial spectrum, agar dilution method (in vitro); format: cell-based; conditions: IFO4626, medium A, 28 °C, 40 hr, read-out: Minimal inhibitory concentration
[4] = test system: Guignardia laricina IFO 7886; test: as above; format: cell-based; conditions: Neofusicoccum laricinum, IFO7886; medium A, 28 °C, 88 hr; read-out: Minimal inhibitory concentration
[5] = test system: Bacillus subtilis IFO 3513; test: as above; format: cell-based; conditions: IFO3513, medium B, 37 °C, 20 hr, read-out: Minimal inhibitory concentration
From the text: (§1) B 0.5% of Ehrlich's meat extract, 0.5% of polypeptone, 0.5% of NaCl, 1.5%

[6] = test system: Proteus vulgaris IFO 3045; test: as above; format: cell-based; conditions: IFO3045, medium B, 37 °C, 20 hr, read-out: Minimal inhibitory concentration
From the text: as §1

[7] = test system: Escherichia coli IFO 12734; test: as above; format: cell-based; conditions: IFO12734, medium B, 37 °C, 20 hr, read-out: Minimal inhibitory concentration
From the text: as §1

[8] = test system: Cochlioborus miyabeanus IFO 5277; test: as above; conditions: 40 h, read-out: Minimal inhibitory concentration
[9] = test system: Saccharomyces cerevisiae IFO 0209; test: as above; format: cell-based; conditions: IFO0209, medium A, 28 °C, 40 hr, read-out: Minimal inhibitory concentration
[10] = test system: fungi of late blight of tomato; format: in vivo; conditions: tomato plants in pots, 4 days, nontreated group taken as 100%
[11] = test system: Mycobacterium phlei IFO 3158; test: Antimicrobial spectrum, agar dilution method (in vitro); format: cell-based; conditions: Mycolicibacterium phlei, IFO3158; medium C, 37 °C, 40 hr; read-out: Minimal inhibitory concentration
From the text: (§2) C 3.0% of glycerin, 0.5% of Ehrlich's meat extract, 0.5% of NaCl, 1.5% of […]

[12] = test system: Mycobacterium smegmatis ATCC 607; test: as above; format: cell-based; conditions: Mycolicibacterium smegmatis, ATCC607; medium C, 37 °C, 40 hr; read-out: Minimal inhibitory concentration
From the text: as §2

some bacteria = test: Antimicrobial spectrum, agar dilution method (in vitro), summary in words; format: cell-based

Row | Compound | LD50 (in vivo; ip) [mg/kg] | LD50 (in vivo; iv) [mg/kg] | LD50 (in vivo; sc) [mg/kg] | MIC [1] [µg/mL] | controlling effect against powdery mildew of barley (powdery mildew of barley) | solubility in organic solvents (Solubilities) | solubility in water (Solubilities) | MIC [2] [µg/mL] | Decrease rate against number of mites immediately before spraying, 5th day (Totranychus urticae) | Decrease rate against number of mites immediately before spraying, 7th day (Totranychus urticae) | MIC [3] [µg/mL] | MIC [4] [µg/mL] | MIC [5] [µg/mL] | MIC [6] [µg/mL] | MIC [7] [µg/mL] | MIC [8] [µg/mL] | MIC [9] [µg/mL] | Percent area of lesions ([10]; 150 ppm) [%] | Percent area of lesions ([10]; 200 ppm) [%] | Percent area of lesions ([10]; 250 ppm) [%] | further results
1 | Cc1cn(C2C=CC(NC(=O)C(N)CO)C(C(O)(CC(O)CNC(=N)N)C(=O)O)O2)c(=O)nc1N (stereo not shown) [Example 6] | > 200 | > 100 | > 200 | 250 (≈ 502 µM) | greatly effective | less soluble | Easily soluble | < 10 | 100 | 100 | 250 (≈ 502 µM) | 250 (≈ 502 µM) | 250 (≈ 502 µM) | > 500 | 250 (≈ 502 µM) | 100 (≈ 201 µM) | 100 (≈ 201 µM) | 100 | 17 | 0 | Percent area of lesions ([10]; 300 ppm): 0%; Percent area of lesions ([10]; 500 ppm): 0%; MIC [11]: 50 µg/mL (≈ 100 µM); MIC [12]: 100 µg/mL (≈ 201 µM)
2 | N=C(N)NCC(O)CC(O)(C(=O)O)C1OC(n2cc(Br)c(N)nc2=O)C=CC1NC(=O)C(N)CO (stereo not shown) [Example 5] | > 200 | > 100 | > 200 | 500 (≈ 888 µM) | greatly effective | less soluble | Easily soluble | < 10 | 100 | 100 | 250 (≈ 444 µM) | 250 (≈ 444 µM) | 250 (≈ 444 µM) | 250 (≈ 444 µM) | 100 (≈ 178 µM) | 100 (≈ 178 µM) | 100 (≈ 178 µM) | 100 | 11 | 0 | antimicrobial activity against some bacteria (some bacteria): remarkably strong antimicrobial activity; Percent area of lesions ([10]; 300 ppm): 0%; Percent area of lesions ([10]; 500 ppm): 0%; MIC [11]: 25 µg/mL (≈ 44.4 µM); MIC [12]: 25 µg/mL (≈ 44.4 µM)
3 | N=C(N)NCC(O)CC(O)(C(=O)O)C1OC(n2cc(F)c(N)nc2=O)C=CC1NC(=O)C(N)CO (stereo not shown) [Example 7] | > 200 | > 100 | > 200 | 250 (≈ 498 µM) | greatly effective | less soluble | Easily soluble | < 10 | 100 | 100 | 250 (≈ 498 µM) | 250 (≈ 498 µM) | 250 (≈ 498 µM) | > 500 | 250 (≈ 498 µM) | 100 (≈ 199 µM) | 100 (≈ 199 µM) | 100 | 16 | 0 | Percent area of lesions ([10]; 300 ppm): 0%; Percent area of lesions ([10]; 500 ppm): 0%; MIC [11]: 25 µg/mL (≈ 49.8 µM); MIC [12]: 100 µg/mL (≈ 199 µM)
4 | N=C(N)NCC(O)CC(O)(C(=O)O)C1OC(n2ccc(N)nc2=O)C=CC1NC(=O)C(N)CO (stereo not shown) [Example 2] | > 200 | > 100 | > 200 | 250 (≈ 516 µM) | greatly effective | less soluble | Easily soluble | < 10 | 100 | 100 | 250 (≈ 516 µM) | 250 (≈ 516 µM) | 250 (≈ 516 µM) | > 500 | 250 (≈ 516 µM) | 100 (≈ 206 µM) | 100 (≈ 206 µM) | 55 | 0 | 0 | Percent area of lesions ([10]; 300 ppm): 0%; Percent area of lesions ([10]; 500 ppm): 0%; MIC [11]: 50 µg/mL (≈ 103 µM); MIC [12]: 100 µg/mL (≈ 206 µM)
